In US9611295B2, “Treatment of IL-17 mediated disease by blocking SEFIR-SEFIR interactions” (THE CLEVELAND CLINIC FOUNDATION, priority 2011, dated 2017):

What was measured:
[1] = system: IL-17-dependent signaling; assay: IL-17-dependent signaling in MEFs by Western blotting (pIκB, pJNK, pERK, pp38 MAPK); format: cell-based, mouse
Experimental: (§1) FIG. 4 provides data showing that a cell-permeable CC′ loop decoy peptide disrupts the interaction between Act1 and IL-17RA and inhibits IL-17R and IL-25R signaling. FIG. 4A provides sequences of Antennapedia homeodomain (Antp) (SEQ ID NO: 11)and decoy peptides (SEQ ID NOS 23-25 and 17, respectively, in order of appearance) with the Antp sequence underlined. FIG. 4B provides flow cytometry results based on experiments in which MEFs expressing IL-17RB were incubated for 2 or 24 hours with the indicated FITC-tagged peptides (200 μM) and were then analyzed by flow cytometry. […] The percentages of FITC-positive cells in the treated samples are shown. […] FIG. 4D provides Western blot results of experiments in which MEFs expressing IL-17RB were incubated with the indicated peptides (200 μM) for 24 hours after which they were treated with IL-17 or IL-25 and then analyzed by Western blotting with the indicated antibodies. […] The abundances of Cxcl1 and Il13 mRNAs were then measured by real-time RT-PCR. […]
(§2) Decoy peptides are based on surface-exposed regions of the primary sequence of a protein to mimic a putative interaction interface. […] These decoy peptides were also tagged at their C-termini with fluorescein isothiocyanate (FITC) to enable their cell-penetrating efficiency to be evaluated by flow cytometric sanalysis. […]

[2] = system: IL-25-dependent signaling; assay: IL-25-dependent signaling in MEFs by Western blotting (pIκB, pJNK, pERK, pp38 MAPK); format: cell-based, mouse
Experimental: FIG. 4 provides data showing that a cell-permeable CC′ loop decoy peptide disrupts the interaction between Act1 and IL-17RA and inhibits IL-17R and IL-25R signaling. FIG. 4A provides sequences of Antennapedia homeodomain (Antp) (SEQ ID NO: 11)and decoy peptides (SEQ ID NOS 23-25 and 17, respectively, in order of appearance) with the Antp sequence underlined. FIG. 4B provides flow cytometry results based on experiments in which MEFs expressing IL-17RB were incubated for 2 or 24 hours with the indicated FITC-tagged peptides (200 μM) and were then analyzed by flow cytometry. […] The percentages of FITC-positive cells in the treated samples are shown. FIG. 4C provides Western blot results of experiments in which HeLa cells were cotransfected with plasmids encoding FLAG-tagged mAct1 and V5-tagged IL-17RA and were cultured for 24 hours, after which they were incubated for 24 hours with the indicated peptides (200 μM). IL-17RA was immunoprecipitated from the samples with antibody against the V5 tag, and samples were then subjected to Western blotting analysis with the indicated antibodies. FIG. 4D provides Western blot results of experiments in which MEFs expressing IL-17RB were incubated with the indicated peptides (200 μM) for 24 hours after which they were treated with IL-17 or IL-25 and then analyzed by Western blotting with the indicated antibodies. FIG. 4E provides bar graphs showing the results of experiments in which MEFs expressing IL-17RB were incubated with the indicated peptides (200 μM) for 24 hours, after which they were treated with IL-17 or IL-25 for 3 hours. The abundances of Cxcl1 and Il13 mRNAs were then measured by real-time RT-PCR. […]
as §2

[3] = system: IL-17-mediated expression of Cxcl1; assay: IL-17-mediated Cxcl1 mRNA expression in MEFs, real-time RT-PCR; format: cell-based, mouse; details: peptides 200 μM for 24 hours, then IL-17 for 3 hours
Experimental: as §1, §2

[4] = system: IL-17-induced pulmonary inflammation; assay: IL-17-induced pulmonary inflammation in BALB/c mice; format: in vivo, mouse
Experimental: FIG. 5 provides bar graph and staining data showing that a cell-permeable CC′ loop decoy peptide inhibits IL-17- and IL-25-induced pulmonary inflammation. Wild-type (WT) female BALB/c mice (n=4 mice per group) were pretreated with DMSO, scrambled peptide, or the CC′ loop decoy peptide for 4 hours, after which they were administered saline, IL-17, or IL-25 intranasally. Mice were sacrificed and analyzed 16 hours after injection with IL-17 or 4 days after injection with IL-25. […] All experiments were performed three times. *P<0.05.
It has been shown that Act1 plays an essential role in IL-17- and IL-25-mediated pulmonary inflammation. Thus, the inventors examined whether the Act1 SEFIR domain CC′ loop decoy peptide ameliorated IL-17- and IL-25-induced airway inflammation in vivo. BALB/c mice were pretreated with scrambled peptide or with the Act1 SEFIR domain CC′ loop decoy peptide for 4 hours, after which we injected the mice intranasally with IL-17 or IL-25. […] Consistently, IL-17-induced lung and airway recruitment of granulocytes was reduced in mice pretreated with the CC′ loop decoy peptide compared to that in mice pretreated with the scrambled peptide (FIG. 5C). The lower grade of pulmonary inflammation in the mice treated with the CC′ loop decoy peptide correlated with the decreased IL-17-dependent expression of genes encoding MCP-1 and GM-CSF in the lung tissues (FIG. 5D). […] IL-25-induced lung and airway recruitment of granulocytes, predominantly eosinophils, as well as mucin production, as determined by Periodic acid-Schiff (PAS) staining, were reduced in mice pretreated with the CC′ loop decoy peptide compared to that in mice pretreated with the scrambled peptide (FIG. 5G). The decreased pulmonary inflammation in […] correlated with decreased expression of genes encoding the TH2-type cytokines IL-5 and IL-13 in the lungs (FIG. 5H).
Intranasal injection of mice with IL-17 and IL-25: Wild-type BALB/c female mice were pretreated with dimethyl sulfoxide (DMSO, the solvent for peptides), scrambled peptide, or the CC′ loop decoy peptide for 4 hours, after which they underwent intranasal administration of saline, IL-17 (4 μg/mouse), or IL-25 (4 μg/mouse). For IL-25-treated mice, decoy peptides were administrated daily through intranasal injection after pretreatment. Mice were anesthetized with isoflurane and sacrificed. BAL fluid was collected 16 hours after injection with IL-17 or 4 days after injection with IL-25. A total of 0.7 ml of HL-1 medium (BioWhittaker®) was used to obtain BAL fluid through trachea with a blunt needle and a 1-ml syringe. Cytospin slide preparations were obtained with a Shandon CytoSpin III Cytocentrifuge (Shandon/Thermo Scientific). Differential leukocyte counts were obtained on cytospin slide preparations after incubation with Diff Quik Giemsa stain. Cytokines in the BAL were analyzed by MultipleX plate (Invitrogen®). H&E and PAS staining were performed on lung tissues after fixation in 10% neutral-buffered formalin and paraffin embedding to detect pulmonary inflammation and for assessment of goblet cell metaplasia and mucin accumulation in airway epithelial cells.

[5] = MEFs expressing IL-17RB, peptides 200 μM, 24 hours
[6] = 4 hours pretreatment, intranasal IL-17, 16 hours, vs scrambled peptide

Question: “DRQIKIWFQNRRMKWKKLDEDEHGLHTKY [CC′ loop decoy peptide]” was tested. Which “IL-17-dependent signaling (pIκB, pJNK, pERK, pp38 MAPK)” value [1, 5] did it give?
Answer: partly attenuated

Question: And the “dose and time dependence of inhibition of IL-17-dependent signaling and gene expression” value ([1]; data not shown)?
Answer: dose-and time-dependent manner

Question: What about the “IL-25-dependent signaling (pIκB, pJNK, pERK, pp38 MAPK)” value [2, 5] of the same sequence?
Answer: partly attenuated

Question: And the “dose and time dependence of inhibition of IL-25-dependent signaling and gene expression” value ([2]; data not shown)?
Answer: dose-and time-dependent manner

Question: What about the “inhibition of IL-17-mediated expression of Cxcl1” value [3] of the same sequence?
Answer: ~50 % inhibition

Question: What about the “GM-CSF in BAL fluid” value [4, 6] of the same sequence?
Answer: substantially reduced

Question: What about the “MCP-1 in BAL fluid” value [4, 6] of the same sequence?
Answer: substantially reduced

Question: What about the “neutrophil counts in BAL fluid” value [4, 6] of the same sequence?
Answer: substantially reduced

Question: What about the “neutrophil counts in BAL fluid” value ([4]; 4 hours pretreatment, intranasal IL-17, 16 hours, vs scrambled peptide, listed as CC′ peptide) of the same sequence?
Answer: reduced accumulation

Question: What about the “dose dependence of inhibition of IL-17-induced pulmonary inflammation” value ([4]; data not shown) of the same sequence?
Answer: dose-dependent manner

Question: What about the “IL-17-dependent expression of genes encoding MCP-1 and GM-CSF in lung tissues” value ([4]; real-time RT-PCR) of the same sequence?
Answer: decreased

Question: And the “IL-17-induced lung and airway recruitment of granulocytes (H&E)” value ([4]; vs scrambled peptide)?
Answer: reduced
